Experiments:
[1] = system: mSOD1^(G93A) transgenic mice
From the text: Transgenic mSOD1^(G93A) mice of both sexes were used in this study.

[2] = system: mSOD1^(G93A) transgenic mice; conditions: mouse, in vivo

`O=C(O)CC(O)(CC(=O)O)C(=O)O.[O-][n+]1cccc(C(Cl)=NOC[C@H](O)CN2CCCCC2)c1` [compound A, (+)-R-N-[2-hydroxy-3-(1-piperidinyl)-propoxy]-pyridine-1-oxide-3-carboximidoyl chloride citrate] was tested, and the “half relaxation time of EDL (mean +/- S.E.M.)” value ([1]; 10 mg/kg i.p. daily from 35 days of age, 120 days of age, n=10, p=0.030 vs untreated (43.3 ms), wild-type 25.8 ms) was 32.2 ms, the “motor units survived in EDL muscles (mean +/- S.E.M.)” value ([1]; 10 mg/kg i.p. daily from 35 days of age, assessed at 120 days of age, n=10, p=0.003 vs untreated (8.3), wild-type 28) was 14.3 +/−0.6 and the “fatigue index (FI) of EDL (mean +/- S.E.M.)” value ([1]; 10 mg/kg i.p. daily, 120 days of age, stimulation 40 Hz, 3 minutes, n=10, p<0.05 vs untreated (0.255), wild-type 0.848) was 0.416+/−0.07. For the same molecule, the “average lifespan (mean +/- S.E.M.)” value ([1]; treated mSOD1^(G93A) mice, n=7, untreated 125 days, endpoint: inability to right itself and loss of approximately 20% body weight) was 153 ± 2.6 days, the “decline in body weight” value ([1]; treated vs untreated mSOD1^(G93A) mice) was “delayed” and the increase in lifespan ([1]; treated vs untreated mSOD1^(G93A) mice, p<0.001) was “over 22%”. For the same molecule, the “motoneurons surviving in the sciatic motor pool (mean +/- S.E.M.)” value [2] was 412+/−28.
